Assay results from US20240287074A1, “SALTS AND CRYSTALS” (Kinoxis Therapeutics Pty Ltd, priority 2020, published 2024).
Where a name gives a salt, the structure may show the parent alone. Read-outs that look alike come from different tables or passages of the source. Marks after values point to notes of the source that are not given here.

Assays:
[1] = tested on: orthosteric vasopressin receptor binding sites; conditions: cited from earlier work
[2] = Dynamic / gravimetric vapour sorption (DVS/GVS) hygroscopicity; type: physicochemical
Experimental: Approximately, 10-20 mg of sample was placed into a mesh vapour sorption balance pan and loaded into a DVS Intrinsic dynamic vapour sorption balance by Surface Measurement Systems. The sample was subjected to a ramping profile from 40-90% relative humidity (RH) at 10% increments, maintaining the sample at each step until a stable weight had been achieved (dm/dt 0.004%, minimum step length 30 minutes, maximum step length 500 minutes) at 25° C. After completion of the sorption cycle, the sample was dried using the same procedure to 0% RH and then a second sorption cycle back to 40% RH. Two cycles were performed. The weight change during the sorption/desorption cycles were plotted, allowing for the hygroscopic nature of the sample to be determined. XRPD analysis was then carried out on any solid retained.
Approximately 10-20 mg of sample was placed into a mesh vapour sorption balance pan and loaded into an IGASorp Moisture Sorption Analyser balance by Hiden Analytical. The sample was subjected to a ramping profile from 40-90% relative humidity (RH) at 10% increments, maintaining the sample at each step until a stable weight had been achieved (98% step completion, minimum step length 30 minutes, maximum step length 60 minutes) at 25° C. After completion of the sorption cycle, the sample was dried using the same procedure to 0% RH, and finally taken back to the starting point of 40% RH. Two cycles were performed. The weight change during the sorption/desorption cycles were plotted, allowing for the hygroscopic nature of the sample to be determined.

[3] = tested on: C57BL/6 mouse model of opioid withdrawal; assay: Naloxone precipitated oxycodone withdrawal-induced jumping; type: in vivo; conditions: 7.3 mg/kg FBE i.p., C57BL/6 mice, 30 min session, vs OXY_VEH
Experimental: Two cohorts of adult male C57BL/6 mice were run assessing the effects of 7.3 mg/kg freebase equivalent (FBE) IP of the compound of the invention in the dihydrochloride salt form (CMPD1-2HCL) and the phosphate form 1 (CMPD1-PO4) on naloxone precipitated withdrawal-induced jumping.
The first cohort of mice (N=30) were split into the following conditions: • (1) Vehicle, 0 mg/kg (n=10); • (2) oxycodone, 0 mg/kg compound of the invention FBE in 2HCL salt form (n=10); • (3) oxycodone, 7.3 mg/kg compound of the invention FBE in 2HCL salt form (n=10).
The second cohort of mice (N=24) were split into the following conditions: • (1) Vehicle, 0 mg/kg (n=8); • (2) oxycodone, 0 mg/kg compound of the invention FBE in PO4 salt form (n=8); • (3) oxycodone, 7.3 mg/kg compound of the invention FBE in PO4 salt form (n=8).
Mice in the oxycodone conditions received i.p. injections of oxycodone for 5 days according to the schedule and doses set out in Table 8. The morning and afternoon doses were separated by 7 h. Mice in the vehicle condition received injections of vehicle saline instead of oxycodone. […]
Testing involved placing mice individually into a 20 (I)×20 (w)×30 (h) cm arena for 30 min. […] Number of jumps were scored from the videos by an experienced experimenter blind to conditions.
Data were analysed by SPSS using oneway ANOVA and planned contrasts.

[4] = target: T1, orthosteric oxytocin receptor binding sites (Homo sapiens, UniProt P30559); conditions: cited from earlier work
T1 sequence (P30559 1-389): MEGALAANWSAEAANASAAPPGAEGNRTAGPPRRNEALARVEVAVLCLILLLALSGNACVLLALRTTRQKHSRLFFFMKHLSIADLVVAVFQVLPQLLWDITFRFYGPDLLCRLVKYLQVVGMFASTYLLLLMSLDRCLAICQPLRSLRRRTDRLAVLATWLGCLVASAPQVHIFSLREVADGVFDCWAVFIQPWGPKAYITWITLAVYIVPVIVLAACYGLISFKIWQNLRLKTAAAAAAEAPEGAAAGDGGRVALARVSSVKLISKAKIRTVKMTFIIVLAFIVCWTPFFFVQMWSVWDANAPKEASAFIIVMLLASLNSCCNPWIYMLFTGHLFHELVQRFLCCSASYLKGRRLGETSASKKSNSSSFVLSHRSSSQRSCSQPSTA

[5] = Oral pharmacokinetics in rats; type: in vivo; conditions: for Plasma AUC0-inf/Dose / Plasma Cmax/Dose: dose-normalised; for Plasma AUC0-inf/Dose / Plasma Cmax/Dose / BA % / % Dose in urine: male Sprague Dawley rats; for Plasma AUC0-inf/Dose / Plasma Cmax/Dose / % Dose in urine: dihydrochloride; for BA % / % Dose in urine / Cmax / half-life / AUC(0-inf) / Tmax: 5 mg/kg target dose (freebase equivalent), 5 mg/kg; for BA % / Cmax / half-life / AUC(0-inf) / Tmax: mean ± SD; for BA %: n = 3, dihydrochloride; for % Dose in urine: urine up to 24 h; for Cmax / half-life / AUC(0-inf) / Tmax: male, Sprague Dawley, rat, plasma, po; for Cmax: n = 3; for half-life: n = 3, read-out: Apparent t1/2 (converted); for AUC(0-inf): n = 3, read-out: Plasma AUC0-inf; for Tmax: n = 3, read-out: Tmax
Experimental: N=3 rats were run in each of the four conditions: • (1) Di-HCL salt in saline • (2) Di-HCL salt in methocel • (3) Phosphate form 1 in saline • (4) Phosphate form 1 in methocel
On the day of dosing the solid compounds were dissolved in either Saline (0.9%) or 0.5% hydroxypropyl methylcellulose (Methocel E3 Premium LV) in Milli-Q water. The formulations were then thoroughly vortexed to produce colourless solutions.
Overnight-fasted rats with adlibitum access to water were administered their dose of the various forms of the compound of the invention via oral gavage (PO) at a dose volume of 3 ml/kg and a dose of 5 mg/kg freebase equivalent. Food access was re-instated 4 hours (h) post-dose. Samples of arterial blood were collected up to 24 h post-dose. After collection, samples were centrifuged, plasma was removed and stored frozen at −80° C. before being analysed by LC-MS. Urine samples were collected at pre, 0-4 h, 4-7 h and 7-24 h post-dose and were analysed by LC-MS following extraction.

relative humidity above which form change is indicated by DVS [2]: above 60 % RH
relative humidity below which the weight change is reversible (DVS) [2]: below 30 % RH
hygroscopicity ([2]; DVS, 25° C., dihydrochloride): high hygroscopicity
Plasma AUC0-inf/Dose ([5]; Methocel): 0.91 ± 0.12 (μg*h/mL)/(mg/kg)
Plasma Cmax/Dose ([5]; Methocel): 0.40 ± 0.02 (μg/mL)/(mg/kg)
Plasma AUC0-inf/Dose ([5]; Saline): 1.14 ± 0.12 (μg*h/mL)/(mg/kg)
Plasma Cmax/Dose ([5]; Saline): 0.61 ± 0.29 (μg/mL)/(mg/kg)
BA % ([5]; Methocel): 98.9 ± 13^b %
% Dose in urine ([5]; Methocel): 0.224 ± 0.14%
BA % ([5]; Saline): 124 ± 13%
% Dose in urine ([5]; Saline): 0.184 ± 0.059%
Cmax ([5]; Methocel): 1800 ± 110 ng/mL
half-life ([5]; Methocel): 40.8 ± 12 min
AUC(0-inf) ([5]; Methocel): 4100 ± 520 ng·h/mL
Tmax ([5]; Methocel): 19.8 ± 6 min
Cmax ([5]; Saline): 2930 ± 1360 ng/mL
half-life ([5]; Saline): 41.4 ± 6 min
AUC(0-inf) ([5]; Saline): 5460 ± 540 ng·h/mL
Tmax ([5]; Saline): 45 ± 24 min
Compound: Cn1ncc2c1Nc1ccccc1NC2 [Di-hydrochloride salt, 1-Methyl-1,4,5,10-tetrahydropyrazolo[3,4-b][1,5]benzodiazepine dihydrochloride]
binding affinity for the orthosteric vasopressin receptor binding sites [1]: without demonstrating significant binding affinity
oxycodone withdrawal-induced jumping [3]: significantly inhibited
binding affinity for the orthosteric oxytocin receptor binding sites [4]: without demonstrating significant binding affinity
